Experimental data taken from patent US6699864B2, “Substituted phenyl-piperazine derivatives, their preparation and use” (H. Lundbeck A/S, priority 1999, dated 2004).
Counter-ions that a name gives are not always drawn.

Experiments:
human 5-HT1A receptors = target: T1, human 5-HT1A receptors (Homo sapiens, UniProt P08908); assay: Inhibition of 3H-5-CT binding to human 5-HT1A receptors; conditions: cloned human 5-HT1A receptors expressed in HeLa cells (HA7); 15 minutes at 37° C., pH 7.7
T1 construct: expressed in transfected cells; host or cells: HeLa cells (HA7)
T1 sequence (P08908 1-422): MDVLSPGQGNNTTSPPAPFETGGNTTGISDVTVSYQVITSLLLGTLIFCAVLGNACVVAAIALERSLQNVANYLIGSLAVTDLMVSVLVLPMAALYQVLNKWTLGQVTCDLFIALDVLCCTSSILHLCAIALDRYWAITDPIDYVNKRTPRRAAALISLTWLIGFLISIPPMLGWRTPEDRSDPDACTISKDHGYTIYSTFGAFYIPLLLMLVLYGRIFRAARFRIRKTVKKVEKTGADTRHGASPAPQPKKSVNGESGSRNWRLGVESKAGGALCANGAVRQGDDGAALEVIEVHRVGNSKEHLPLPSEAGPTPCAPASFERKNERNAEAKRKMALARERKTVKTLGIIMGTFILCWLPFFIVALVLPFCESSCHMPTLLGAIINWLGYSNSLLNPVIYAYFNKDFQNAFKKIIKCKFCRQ
Description: The affinity of the compounds of the invention to 5-HT1A receptors was determined by measuring the inhibition of binding of a radioactive ligand at 5-HT1A receptors as described in the following test:
Inhibition of ^3H-5-CT Binding to Human 5-HT1A Receptors.
By this method, the inhibition by drugs of the binding of the 5-HT1A agonist ^3H-5-carboxamido tryptamine (^3H-5-CT) to cloned human 5-HT1A receptors stably expressed in transfected HeLa cells (HA7) (Fargin, A. et al, J. Biol. Chem., 1989, 264, 14848) is determined in vitro. The assay was performed as a modification of the method described by Harrington, M. A. et al, J. Pharmacol. Exp. Ther., 1994, 268, 1098. Human 5-HT1A receptors (40 μg of cell homogenate) were incubated for 15 minutes at 37° C. in 50 mM Tris buffer at pH 7.7 in the presence of ^3H-5-CT. Non-specific binding was determined by including 10 μM of metergoline. The reaction was terminated by rapid filtration through Unifilter GF/B filters on a Tomtec Cell Harvester. Filters were counted in a Packard Top Counter.

[1] = target: T2, 3H-5-HT uptake into whole rat brain synaptosomes (serotonin reuptake) (Rattus norvegicus, UniProt P31652); assay: Inhibition of 3H-5-HT uptake into rat brain synaptosomes; format: biochemical; conditions: for IC50: in vitro; for inhibition at 0.1 µM: at 100 nM
T2 construct: whole rat brain synaptosomes; from tissue; host or cells: whole rat brain synaptosomes
T2 sequence (P31652 whole entry): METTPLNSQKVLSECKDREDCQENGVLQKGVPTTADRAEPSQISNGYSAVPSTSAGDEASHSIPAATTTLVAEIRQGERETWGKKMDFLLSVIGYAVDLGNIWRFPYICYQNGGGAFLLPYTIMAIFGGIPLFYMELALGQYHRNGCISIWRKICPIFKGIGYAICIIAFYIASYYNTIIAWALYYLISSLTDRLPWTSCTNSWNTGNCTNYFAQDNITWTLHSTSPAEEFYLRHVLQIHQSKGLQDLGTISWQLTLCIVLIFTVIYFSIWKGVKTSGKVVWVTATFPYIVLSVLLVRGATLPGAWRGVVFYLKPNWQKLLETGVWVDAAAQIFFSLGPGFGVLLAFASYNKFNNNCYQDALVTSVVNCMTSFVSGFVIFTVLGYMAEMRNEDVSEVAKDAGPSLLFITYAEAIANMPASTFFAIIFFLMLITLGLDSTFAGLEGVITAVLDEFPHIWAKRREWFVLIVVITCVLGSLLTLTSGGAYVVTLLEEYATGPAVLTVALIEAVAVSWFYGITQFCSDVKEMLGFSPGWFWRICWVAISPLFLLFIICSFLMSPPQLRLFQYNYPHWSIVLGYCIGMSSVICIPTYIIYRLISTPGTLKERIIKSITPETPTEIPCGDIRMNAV
Description: Inhibition of ^3H-5-HT Uptake Into Rat Brain Synaptosomes
Using this method, the ability of drugs to inhibit the accumulation of ^3H-5-HT into whole rat brain synaptosomes is determined in vitro. The assay was performed as described by Hyttel, J., Psychopharmacology 1978, 60, 13.

IC50 (human 5-HT1A receptors) [µM] | IC50 [1] [µM] | inhibition at 0.1 µM [1] [%] | melting point | SMILES
0.01 | 0.013 | – | – | c1ccc(Oc2ccccc2N2CCN(CCCc3c[nH]c4ccccc34)CC2)cc1 [Compound 5e, 1-(2-Phenoxyphenyl)-4-[3-(1H-indol-3-yl)propyl]piperazine]
0.016 | – | 27 | – | c1ccc(N2CCN(CCCCc3c[nH]c4ccccc34)CC2)c(Oc2ccc3c(c2)OCO3)c1 [Compound 3c]
0.028 | – | 34 | – | CCOc1cccc(Oc2ccccc2N2CCN(CCCc3c[nH]c4ccc(C)cc34)CC2)c1 [Compound 5ai, 1-[2-(3-Ethoxyphenoxy)phenyl]-4-[3-(5-methyl-1H-indol-3-yl)propyl]piperazine]
0.019 | 0.014 | – | – | Fc1ccc2[nH]cc(CCCN3CCN(c4ccccc4Oc4cccc5c4OCCO5)CC3)c2c1 [Compound 5a, 1-[2-(1,4-Benzodioxan-5-Yloxy)Phenyl]-4-[3-(5-Fluoro-1H-Indol-3-Yl)Propyl]Piperazine]
0.026 | 0.023 | – | – | Fc1ccc2[nH]cc(CCCN3CCN(c4ccccc4Oc4cccc(N5CCOCC5)c4)CC3)c2c1 [Compound 5ag, 1-{2-[3-(Morpholin-4-yl)phenoxy]phenyl}-4-[3-(5-fluoro-1H-indol-3-yl)propyl]piperazine]
0.018 | 0.033 | – | – | COc1ccccc1Oc1ccccc1N1CCN(CCCc2c[nH]c3c(F)cc(F)cc23)CC1 [Compound 5x, 1-[2-(2-Methoxyphenoxy)phenyl]-4-[3-(5,7-difluoro-1H-indol-3-yl)propyl]piperazine]
0.01 | 0.0048 | – | – | Fc1ccc2[nH]cc(CCCN3CCN(c4ccccc4Oc4ccccc4)CC3)c2c1 [Compound 5f, 1-(2-Phenoxyphenyl)-4-[3-(5-fluoro-1H-indol-3-yl)propyl]piperazine]
0.026 | – | 42 | – | c1ccc(N2CCN(CCCc3c[nH]c4ccccc34)CC2)c(Oc2cccc3c2OCCO3)c1 [Compound 5ae, 1-[2-(1,4-Benzodioxan-5-yloxy)phenyl]-4-[3-(1H-indol-3-yl)propyl]piperazine]
0.01 | – | 46 | – | Cc1ccc2[nH]cc(CCCN3CCN(c4ccccc4Oc4cccc(N(C)C)c4)CC3)c2c1 [Compound 5i, 1-(2-[3-(Dimethylamino)phenoxy]phenyl]-4-[3-(5-methyl-1H-indol-3-yl)propyl]piperazine]
0.013 | 0.0047 | – | – | COc1ccccc1Oc1ccccc1N1CCN(CCCc2c[nH]c3ccc(F)cc23)CC1 [Compound 5l, 1-[2-(2-Methoxyphenoxy)phenyl]-4-[3-(5-fluoro-1H-indol-3-yl)propyl]piperazine]
0.01 | – | 55 | – | COc1cccc(OC)c1Oc1ccccc1N1CCN(CCCc2c[nH]c3ccc(Br)cc23)CC1 [Compound 5h, 1-[2-(2,6-Dimethoxyphenoxy)phenyl]-4-[3-(5-bromo-1H-indol-3-yl)propyl]piperazine]
0.024 | – | 40 | – | Clc1ccc2c(CCN3CCN(c4ccccc4Oc4ccc5c(c4)OCO5)CC3)c[nH]c2c1 [Compound 3e, 1-[2-(1,3-Benzodioxolan-5-yloxy)phenyl]-4-[2-(6-chloro-1H-indol-3-yl)ethyl]piperazine]

Continued, molecule first:

SMILES | IC50 (human 5-HT1A receptors) [µM] | IC50 [1] [µM] | inhibition at 0.1 µM [1] [%] | melting point
c1ccc(N2CCN(CCc3c[nH]c4ccccc34)CC2)c(Oc2ccc3c(c2)OCO3)c1 [Compound 1b, 1-[2-(1,3-Benzodioxolan-5-yloxy)phenyl]-4-[2-(1H-indol-3-yl)ethyl]piperazine] | 0.0078 | 0.13 | – | –
c1ccc(N2CCN(CCCc3c[nH]c4ccccc34)CC2)c(Oc2ccc3c(c2)OCO3)c1 (as salt: oxalate) [Compound 2b, 1-[2-(1,3-Benzodioxolan-5-Yloxy)Phenyl]-4-[3-(1H-Indol-3-Yl)Propyl]Piperazine] | – | – | – | 156 to 162 °C
Clc1ccc2c(CCCN3CCN(c4ccccc4Oc4ccc5c(c4)OCO5)CC3)c[nH]c2c1 (as salt: hydrochloride) [Compound 2c, 1-[2-(1,3-Benzodioxolan-5-Yloxy)Phenyl]-4-[3-(6-Chloro-1H-Indol-3-Yl)Propyl]Piperazine] | – | – | – | 165 °C (dec.)
c1ccc(N2CCN(CCc3c[nH]c4ccccc34)CC2)c(Oc2ccc3c(c2)OCO3)c1 (as salt: oxalate) [Compound 1b, 1-[2-(1,3-Benzodioxolan-5-yloxy)phenyl]-4-[2-(1H-indol-3-yl)ethyl]piperazine] | – | – | – | 221 to 228 °C
COc1ccccc1Oc1ccccc1N1CCN(CCCc2c[nH]c3ccc(F)cc23)CC1 (as salt: hydrochloride) [Compound 2d, 1-[2-(2-Methoxyphenoxy)Phenyl]-4-[3-(5-Fluoro-1H-Indol-3-Yl)Propyl]Piperazine] | – | – | – | 183 to 189 °C
c1ccc(N2CCN(CCCc3c[nH]c4ccccc34)CC2)c(Oc2ccc3c(c2)OCO3)c1 [Compound 2b, 1-[2-(1,3-Benzodioxolan-5-Yloxy)Phenyl]-4-[3-(1H-Indol-3-Yl)Propyl]Piperazine] | 0.016 | 0.0028 | – | –
